# Measured values from patent publication US20190105367A1, “ANTIMICROBIAL 4-OXOQUINOLIZINES” (Emergent Product Development Gaithersburg Inc., priority 2011, published 2019).
# Like-named read-outs stand apart in the source and are kept apart here.
# What was measured:
# [1] = tested on: Acinetobacter sp. (H064200250); test: MIC without and with sub-inhibitory polymyxin B (Example 4); assay type: cell-based; conditions: for MIC: Acinetobacter
# [2] = tested on: A. baumannii A472; test: Preliminary MBC without and with sub-inhibitory polymyxin B (Example 4); assay type: cell-based, Acinetobacter baumannii; conditions: Acinetobacter baumannii, preliminary MBC
# [3] = tested on: A. baumannii J2; test: MIC without and with sub-inhibitory polymyxin B (Example 4); assay type: cell-based, Acinetobacter baumannii
# [4] = tested on: A. baumannii ATCC 19606; test: as above; assay type: cell-based, Acinetobacter baumannii; conditions: for MIC without PB/MIC + PB: A. baumannii ATCC 19606; for MIC: Acinetobacter baumannii
# [5] = tested on: A. baumannii A14; test: as above; assay type: cell-based, Acinetobacter baumannii; conditions: 1st experiment
# [6] = tested on: A. baumannii NCTC 13301; test: as above; assay type: cell-based, Acinetobacter baumannii; conditions: +[…] PB, 2nd experiment
# [7] = tested on: A. baumannii A472; test: as above; assay type: cell-based, Acinetobacter baumannii; conditions: for MIC: Acinetobacter baumannii
# [8] = tested on: A. baumannii A387; test: Preliminary MBC without and with sub-inhibitory polymyxin B (Example 4); assay type: cell-based, Acinetobacter baumannii; conditions: Acinetobacter baumannii
# [9] = tested on: A. baumannii A473; test: MIC without and with sub-inhibitory polymyxin B (Example 4); assay type: cell-based, Acinetobacter baumannii; conditions: +0.06 μg/ml PB, 2nd experiment
# [10] = tested on: strains of A. baumannii and one strain of Acinetobacter sp.; test: MIC with sub-inhibitory concentrations (0.25x MIC) of polymyxin B, panel of Acinetobacter strains (Example 4); assay type: cell-based; conditions: 2nd experiment; 0.06 μg/ml polymyxin B; all strains except the ATCC strain
# [11] = tested on: A. baumannii A14; test: Preliminary MBC without and with sub-inhibitory polymyxin B (Example 4); assay type: cell-based, Acinetobacter baumannii; conditions: 2nd experiment
# How it was run: (§1)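 Bactericidal endpoint scored visually on plates incubated at 37° C (18-20 hours): the lowest concentration where growth fell about 90% versus the positive control, generally leaving one colony or none.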
# [12] = tested on: A. baumannii NCTC 13301; test: as above; assay type: cell-based, Acinetobacter baumannii; conditions: Acinetobacter baumannii
# How it was run: as §1
# [13] = tested on: A. baumannii A390; test: as above; assay type: cell-based, Acinetobacter baumannii; conditions: Acinetobacter baumannii, A390, A. baumannii A390, +0.06 μg/ml PB, 2nd experiment, read-out: MBC
# How it was run: as §1
# [14] = tested on: A. baumannii A473; test: as above; assay type: cell-based, Acinetobacter baumannii; conditions: Acinetobacter baumannii, A473, A. baumannii A473, +0.06 μg/ml PB, 2nd experiment, read-out: MBC
# How it was run: as §1
# [15] = tested on: A. baumannii NCTC 13301; test: MIC without and with sub-inhibitory polymyxin B (Example 4); assay type: cell-based, Acinetobacter baumannii
# [16] = tested on: A. baumannii A390; test: as above; assay type: cell-based, Acinetobacter baumannii; conditions: +0.06 μg/ml PB, 2nd experiment
# [17] = tested on: A. baumannii A14; test: as above; assay type: cell-based, Acinetobacter baumannii; conditions: 2nd experiment
# [18] = tested on: A. baumannii A489; test: as above; assay type: cell-based, Acinetobacter baumannii; conditions: for MIC without PB/MIC + PB: A. baumannii A489; for MIC: Acinetobacter baumannii
# [19] = tested on: A. baumannii A401; test: Preliminary MBC without and with sub-inhibitory polymyxin B (Example 4); assay type: cell-based, Acinetobacter baumannii; conditions: Acinetobacter baumannii
# [20] = tested on: A. baumannii A329; test: MIC without and with sub-inhibitory polymyxin B (Example 4); assay type: cell-based, Acinetobacter baumannii; conditions: +0.06 μg/ml PB, 2nd experiment
# [21] = tested on: A. baumannii A387; test: as above; assay type: cell-based, Acinetobacter baumannii; conditions: for MIC without PB/MIC + PB: A. baumannii A387; for MIC: Acinetobacter baumannii
# [22] = tested on: A. baumannii A401; test: as above; assay type: cell-based, Acinetobacter baumannii; conditions: for MIC: Acinetobacter baumannii
# [23] = tested on: A. baumannii A14; test: Preliminary MBC without and with sub-inhibitory polymyxin B (Example 4); assay type: cell-based, Acinetobacter baumannii; conditions: A. baumannii A14; +0.06 μg/ml polymyxin B; preliminary MBC; 1st experiment
# [24] = tested on: A. baumannii ATCC 19606; test: as above; assay type: cell-based, Acinetobacter baumannii; conditions: Acinetobacter baumannii
# [25] = ratio, PB 0.06 μg/ml, 1st experiment
# [26] = A. baumannii A14, +0.06 μg/ml PB
smiles,measurement,setting,value
"Cc1c(-c2ccc(N)cc2)ccn2c(=O)c(C(=O)O)cc(C3CC3)c12 [Compound 8, 8-(4-amino-phenyl)-1-cyclopropyl-9-methyl-4-oxo-quinolizine-3-carboxylic acid]",MIC without PB/MIC + PB,"[1]; Acinetobacter spp. H064200250 (OXA51), +[…] PB, 2nd experiment",32
same,MIC without PB/MIC + PB,"[1]; Acinetobacter spp. H064200250, ratio, PB […], 1st experiment",32
same,MIC,"[1]; Acinetobacter spp. H064200250 (OXA51), +[…] PB, 2nd experiment, read-out: MIC",0.125 µg/mL
same,MIC,"[1]; read-out: MIC +[…] PB, Acinetobacter spp. H064200250, +[…] polymyxin B, 1st experiment",0.06 µg/mL
same,MBC,"[2]; A472, A. baumannii A472, +[…] PB, 2nd experiment, read-out: MBC",0.06 µg/mL
same,MBC,"[2]; A472, read-out: MBC +[…] PB, A. baumannii A472, +[…] polymyxin B, 1st experiment",≤ 0.03 µg/mL
same,MIC without PB/MIC + PB,"[3]; A. baumannii J2, +[…] PB, 2nd experiment",≥128
same,MIC +[…] PB,"[3]; A. baumannii J2, +[…] polymyxin B, 1st experiment",0.125 µg/mL
same,MIC without PB/MIC + PB,"[3]; A. baumannii J2, ratio, PB […], 1st experiment",64
same,MIC,"[3]; Acinetobacter baumannii, J2, A. baumannii J2, +[…] PB, 2nd experiment, read-out: MIC",≤ 0.03 µg/mL
same,MIC without PB/MIC + PB,"[4]; +0.06 μg/ml PB, 2nd experiment",≥8
same,MIC without PB/MIC + PB,[4]; [25],≥32
same,MIC,"[4]; ATCC19606, A. baumannii ATCC 19606, +0.06 μg/ml PB, 2nd experiment, read-out: MIC",≤ 0.03 µg/mL
same,MIC,"[4]; ATCC19606, read-out: MIC +0.06 μg/ml PB, A. baumannii ATCC 19606, +0.06 μg/ml polymyxin B, 1st experiment",≤ 0.03 µg/mL
same,MIC +0.06 μg/ml PB,[5]; +0.06 μg/ml polymyxin B,1 µg/mL
same,MIC without PB/MIC + PB,"[5]; ratio, PB 0.06 μg/ml",32
same,MIC without PB/MIC + PB,[6]; A. baumannii NCTC 13301,32
same,MIC,"[6]; Acinetobacter baumannii, NCTC13301, A. baumannii NCTC 13301, read-out: MIC",0.5 µg/mL
same,MIC without PB/MIC + PB,"[7]; A. baumannii A472, ratio, PB […], 1st experiment",≥128
same,MIC,"[7]; A472, A. baumannii A472, +[…] PB, 2nd experiment, read-out: MIC",0.06 µg/mL
same,MIC,"[7]; A472, read-out: MIC +[…] PB, A. baumannii A472, +[…] polymyxin B, 1st experiment",≤ 0.03 µg/mL
same,MBC,"[8]; A387, A. baumannii A387, +0.06 μg/ml PB, 2nd experiment, read-out: MBC",0.25 µg/mL
same,MBC,"[8]; A387, read-out: MBC +0.06 μg/ml PB, A. baumannii A387, +0.06 μg/ml polymyxin B, 1st experiment",≤ 0.03 µg/mL
same,MIC without PB/MIC + PB,[9]; A. baumannii A473,8
same,MIC,"[9]; Acinetobacter baumannii, A473, A. baumannii A473, read-out: MIC",0.5 µg/mL
same,"MIC range with PB (0.25x MIC) Oct. 14, 2008 n = 11",[10],≤0.03 to 8 µg/mL
same,MBC,[11]; [26],0.5 µg/mL
same,MBC,"[11]; Acinetobacter baumannii, A14, A. baumannii A14, without PB, read-out: MBC",16 µg/mL
same,MBC,"[12]; NCTC13301, A. baumannii NCTC 13301, +[…] PB, preliminary MBC, 2nd experiment, read-out: MBC",0.5 µg/mL
same,MBC,"[12]; NCTC13301, read-out: MBC +[…] PB",1 µg/mL
same,MBC,[13],0.5 µg/mL
same,MBC,[14],0.5 µg/mL
same,MIC without PB/MIC + PB,"[15]; A. baumannii NCTC 13301, ratio, PB […], 1st experiment",64
same,MIC,"[15]; Acinetobacter baumannii, NCTC13301, read-out: MIC +[…] PB",0.5 µg/mL
same,MIC without PB/MIC + PB,[16]; A. baumannii A390,32
same,MIC,"[16]; Acinetobacter baumannii, A390, A. baumannii A390, read-out: MIC",0.5 µg/mL
same,MIC,[17]; [26],0.5 µg/mL
same,MIC without PB/MIC + PB,[17]; [26],16
same,MIC,"[17]; Acinetobacter baumannii, A14, A. baumannii A14, without PB, read-out: MIC",8 µg/mL
same,MIC without PB/MIC + PB,"[18]; +[…] PB, 2nd experiment",≥256
same,MIC without PB/MIC + PB,"[18]; ratio, PB […], 1st experiment",≥64
same,MIC,"[18]; A489, A. baumannii A489, +[…] PB, 2nd experiment, read-out: MIC",≤ 0.03 µg/mL
same,MIC,"[18]; A489, read-out: MIC +[…] PB, A. baumannii A489, +[…] polymyxin B, 1st experiment",≤ 0.03 µg/mL
same,MBC,"[19]; A401, A baumannii A 401, +0.06 μg/ml PB, 2nd experiment, read-out: MBC",0.25 µg/mL
same,MBC,"[19]; A401, read-out: MBC +0.06 μg/ml PB, A baumannii A 401, +0.06 μg/ml polymyxin B, 1st experiment",≤ 0.03 µg/mL
same,MIC without PB/MIC + PB,[20]; A. baumannii A329,4
same,MIC,"[20]; Acinetobacter baumannii, A329, A. baumannii A329, read-out: MIC",2 µg/mL
same,MIC without PB/MIC + PB,"[21]; +0.06 μg/ml PB, 2nd experiment",2
same,MIC without PB/MIC + PB,[21]; [25],≥64
same,MIC,"[21]; A387, A. baumannii A387, +0.06 μg/ml PB, 2nd experiment, read-out: MIC",0.5 µg/mL
same,MIC,"[21]; A387, read-out: MIC +0.06 μg/ml PB, A. baumannii A387, +0.06 μg/ml polymyxin B, 1st experiment",≤ 0.03 µg/mL
same,MIC without PB/MIC + PB,"[22]; A baumannii A 401, ratio, PB 0.06 μg/ml, 1st experiment",≥1024
same,MIC,"[22]; A401, A baumannii A 401, +0.06 μg/ml PB, 2nd experiment, read-out: MIC",0.25 µg/mL
same,MIC,"[22]; A401, read-out: MIC +0.06 μg/ml PB, A baumannii A 401, +0.06 μg/ml polymyxin B, 1st experiment",≤ 0.03 µg/mL
same,MBC +0.06 μg/ml PB,[23],1 µg/mL
same,MBC,"[24]; ATCC19606, A. baumannii ATCC 19606, +0.06 μg/ml PB, 2nd experiment, read-out: MBC",≤ 0.03 µg/mL
same,MBC,"[24]; ATCC19606, read-out: MBC +0.06 μg/ml PB, A. baumannii ATCC 19606, +0.06 μg/ml polymyxin B, 1st experiment",≤ 0.03 µg/mL
